# Data from patent US20260242759A1, “GQ/11 Protein Peptidomimetics” (Vrije Universiteit Brussel, priority 2022, published 2026).
# Positions of bridges follow the written chain, without caps; N, C: chain ends. Non-standard residues stand in square brackets, D forms with d. Residues, ends and D or L forms follow the SMILES beside them. Triazole bridges read from a SMILES are 1,4-linked. Lys(N3) = [N-]=[N+]=NCCCC[C@H](N)C(=O)O; Cha = N[C@@H](CC1CCCCC1)C(=O)O; Pra = C#CC[C@H](N)C(=O)O
# How the values were obtained:
# [1] = target: T1, human muscarinic 1 receptor (M1R) (Homo sapiens, UniProt P11229); test: Radioligand binding assay (RLA) on M1R membrane extracts; details: for Shift: IC50 of agonist without mimetic divided by IC50 with mimetic, averaged value; for increase of agonist affinity / stabilization of the receptor: acetylcholine chloride, mimetic at 100 μM
# T1 construct: The M1R constructs used in this assay consisted of the full-length human muscarinic 1 receptor; FLAG (N); expressed in transfected cells; membrane extracts
# T1 sequence (P11229 1-460): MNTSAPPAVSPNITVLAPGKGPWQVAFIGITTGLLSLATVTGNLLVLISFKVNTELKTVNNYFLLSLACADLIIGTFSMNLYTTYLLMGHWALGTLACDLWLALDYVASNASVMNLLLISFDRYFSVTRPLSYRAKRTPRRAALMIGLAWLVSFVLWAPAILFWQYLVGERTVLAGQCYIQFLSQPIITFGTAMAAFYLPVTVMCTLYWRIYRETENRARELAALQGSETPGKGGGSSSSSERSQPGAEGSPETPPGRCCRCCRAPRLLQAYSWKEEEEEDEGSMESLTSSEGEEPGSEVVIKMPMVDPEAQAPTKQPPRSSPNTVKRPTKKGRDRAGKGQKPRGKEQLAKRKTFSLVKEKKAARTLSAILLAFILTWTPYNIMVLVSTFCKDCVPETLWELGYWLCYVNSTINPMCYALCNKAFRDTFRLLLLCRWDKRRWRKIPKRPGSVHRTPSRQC
# Text: A radioligand displacement assay can quantify the pharmacological stabilization of the GPCR in the active conformation by comparing the affinities of an agonist for the basal versus the active GPCR conformer. In particular, stabilization of a GPCR in an active conformational state or specific binding to a GPCR in an active conformational state by a G protein peptidomimetic or a Gq/11 protein peptidomimetic as disclosed herein can be determined based on the shift in IC50 value of a ligand, in particular an agonist more particularly an orthosteric agonist, which binds to the GPCR when tested in the presence and the absence of the G protein peptidomimetic or the Gq/11 protein peptidomimetic. During the assay, the binding affinity of an orthosteric agonist for the receptor in presence and absence of the (allosteric) peptidomimetic is determined. Therefore, the GPCR, e.g. embedded in membrane extracts, is incubated with a radioligand and different concentrations of the agonist. By increasing the agonist concentration, radioligand will be displaced by the agonist. A leftward shift of the curve in the presence of the peptidomimetic is indicative of a peptidomimetic capable of stabilizing a GPCR in an active conformational state. A “shift” in IC50 value or IC50 shift is defined herein as the IC50 ratio of a ligand, in particular an agonist, more particularly an orthosteric agonist, which binds to the GPCR in the absence of a G protein peptidomimetic or a Gq/11 protein peptidomimetic relative to the presence of the G protein peptidomimetic or the Gq/11 protein peptidomimetic, or the IC50 value of a ligand, in particular an agonist, for binding to the GPCR in the absence of a G protein peptidomimetic or a Gq/11 protein peptidomimetic divided by the IC50 value of the ligand in the presence of the G protein peptidomimetic or the Gq/11 protein peptidomimetic in the same preparation, wherein said IC50 values are determined in a radioligand binding assay or radioligand displacement assay (RLA) as known to the skilled person. For example, a human muscarinic acetylcholine 1 receptor (M1R) radioligand binding assay using ^3H—N-methyl scopolamine (^3H-NMS) as the radioligand and increasing concentrations of acetylcholine chloride (agonist) as cold competitor may be used.
# The membrane extracts were prepared from cells that overexpressed muscarinic acetylcholine 1 receptor (M1R), by resuspending the cell pellet in a buffer (1 ml buffer/2×1E7 cells) containing 20 mM Hepes (pH 7.4), 100 mM NaCl, Leupeptin and phenylmethylsulfonyl fluoride (PMSF). Afterwards the cells were vortexed and homogenized in ice using a small volume ULTRA-TURRAX® (6×10 sec). The cells were then centrifuged for 15 min at 16000 rcf, in a pre-cooled centrifuge (4° C.) and resuspended in the previous buffer containing 10% sucrose. Finally, the membranes were again homogenized in ice with the small volume ULTRA-TURRAX® (3×10 sec). The protein concentration in the membrane extracts was determined using a Pierce™ bicinchoninic acidv (BCA) Protein Assay Kit and the protein concentration was extrapolated from the Bovine Serum Albumine standard curve.
# The M1R constructs used in this assay consisted of the full-length human muscarinic 1 receptor with a FLAG tag at the N-terminus. A buffer containing 20 mM Hepes pH 7.4, 100 mM NaCl, and 0.1% BSA was used for the ligands, membrane extracts and peptides (+1% dimethylsulfoxide (DMSO)). The competition assay was performed with [3H]—N-methyl scopolamine ([3H]-NMS) as radiolabeled antagonist, at a final concentration of 0.6 nM. A ten-fold dilution series of the agonist, acetylcholine chloride, was prepared to obtain a dose response curve. After incubation, the samples were harvested into filter plates (GF/C) and washed with ice cold washing buffer (20 mM Hepes pH 7.4) using the 96-well harvester. […]
# [2] = target: T2, human ghrelin receptor (GHSR) (Homo sapiens, UniProt Q92847, C146S/C304S); test: Bimane fluorescence assay on purified ghrelin receptor in nanodiscs; format: biochemical; details: bimane labeled GHSR; for conformational change in the receptor: in presence of JMV1843; for maximum emission wavelength of bimane: in presence of full agonist JMV1843 (20 μM)
# T2 construct: integrin α5 fragment (N); polyhistidine tag (C); made in house; host or cells: E. coli BL21(DE3)
# T2 sequence (Q92847 whole entry C146S/C304S, the tested form may be a part): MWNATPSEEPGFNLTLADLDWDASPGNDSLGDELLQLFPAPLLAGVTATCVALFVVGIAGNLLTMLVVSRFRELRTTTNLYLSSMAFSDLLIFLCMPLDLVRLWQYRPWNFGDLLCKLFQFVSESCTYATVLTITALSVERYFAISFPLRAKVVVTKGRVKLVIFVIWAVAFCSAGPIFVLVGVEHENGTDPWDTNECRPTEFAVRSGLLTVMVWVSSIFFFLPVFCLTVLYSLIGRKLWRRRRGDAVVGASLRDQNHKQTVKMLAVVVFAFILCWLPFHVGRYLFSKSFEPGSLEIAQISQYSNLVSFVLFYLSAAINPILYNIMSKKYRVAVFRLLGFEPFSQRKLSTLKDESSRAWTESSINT
# Text: Another assay that can be used to analyse conformational changes associated with GPCR activation and/or to identify G protein peptidomimetics that are capable of stabilizing a GPCR in an active conformational state is the bimane fluorescence assay or bimane assay. This assay works through labelling of a cysteine residue in the lower part of the TM6 of a GPCR with a bimane-fluorophore (monobromobimane (MB)). Binding of an agonist to the GPCR causes a conformational change and outward movement of TM6 that places bimane in a more solved-exposed position, which will alter its maximum emission wavelength. In particular, increasing concentrations of agonist result in a concentration-dependent red-shift of the maximum emission wavelength (λmax) of the bimane-fluorophore probe. In the presence of a G protein or an active state stabilizing G protein peptidomimetic λmax may increase further. For example, a bimane labelled ghrelin receptor (such as a cysmin mutant (i.e. mutant with minimal cysteines) of human ghrelin receptor (also referred to herein as growth hormone secretagogue receptor (GHSR) (e.g. the mutant as described in Damian et al. (2021) wherein monobromobimane (MB) fluorescent probe is attached to Cys^255) and ghrelin receptor agonist JMV1843 may be used.
# The bimane fluorescence assays on the ghrelin receptor were performed as described in Damian et al. (2021. Nat. Commun. 12:1-15). Briefly, E. coli bacteria (BL21(DE3)) were transformed with a vector encoding the human ghrelin receptor with an integrin α5 fragment at the N-terminus and a polyhistidine tag at the C-terminus. The receptors were then purified and reconstituted into lipidated nanodiscs. The monobromobimane labeling was performed by incubating the receptors, with a unique reactive cysteine at position 255, during 16 h in the dark at 4° C. and in the presence of 0.1 mM tris(2-carboxyethyl)phosphine (TCEO). The reaction was terminated with 5 mM L-cysteine and unreacted monobromobimane was removed using a Zeba™ Spin desalting column.
# For the fluorescence assay, the labeled receptor was incubated during 2 h at 20° C. (0.2 μM final concentration), in the absence or presence of the full agonist JMV1843 (20 μM) and in the absence or presence of either the peptidomimetics at varying molar ratios or the purified Gαqβ1γ2 heterotrimer, at a 1:5 receptor-to-G protein molar ratio. Afterwards, the fluorescence experiments were performed on a Horiba Fluoromax-4 TCSP spectrofluorimeter. For each scan, the excitation wavelength (λexc) was set at 380 nm and emission was collected between 440 nm and 520 nm.
# The bimane assay is used on GPCRs to detect conformational changes associated with receptor activation. This assay functions through the labelling of a cysteine, which is one of the least frequently occurring amino acids in proteins. Additionally, the majority of the extracellular cysteines form disulfide bonds, which, together with the transmembrane cysteines, are inert to thiol-reactive reagents. Additionally, some of the intracellular cysteines in the C-terminal tail may carry post-translational modifications which reduces the number of reactive cysteines in the receptor (Tian et al. 2017. Chem. Rev. 117:186-245). For GHSR, the remaining reactive cysteine residues C146 (ICL2) and C304 (extracellular end of TM7) were replaced by serines (cysmin mutant, i.e. mutant with minimal cysteines), to allow the monobromobimane (MB) fluorescent probe to be specifically attached to Cys255 in the lower part of TM6 (FIG. 5a) (Damian et al. 2021). In this assay, bimane is chosen because of its small size and sensitivity to the polarity of its environment (Yao et al. 2006. Nat Chem. Biol. 2:417-422). Binding of a ligand to the receptor, causes a conformational change and outward movement of TM6 that places bimane in a more solvent-exposed position, which alters its maximum emission wavelength. […]
Molecule,Shift [1],conformational change in the receptor [2],increase of agonist affinity / stabilization of the receptor [1],maximum emission wavelength of bimane [2] [nm]
Ac-KKKFAAVKDTILQLNLKEYNLV-OH [SBL-GQ-02],2,not able to induce a conformational change,–,–
CC[C@H](C)[C@H](NC(=O)[C@@H]1CCCCn2cc(nn2)C[C@H](NC(=O)[C@H](CC(N)=O)NC(=O)[C@H](Cc2ccccc2)NC(=O)[C@H](CCCCN)NC(=O)[C@H](CCCCN)NC(=O)[C@H](CCCCN)NC(C)=O)C(=O)N[C@@H](CS)C(=O)N[C@@H](CCCCN)C(=O)N[C@@H](CC(=O)O)C(=O)N1)C(=O)N[C@@H](CC(C)C)C(=O)N[C@@H](CCC(N)=O)C(=O)N[C@@H](CCSC)C(=O)N[C@@H](CC(N)=O)C(=O)N[C@@H](CC(C)C)C(=O)N[C@@H](CCCNC(=N)N)C(=O)N[C@@H](CCC(=O)O)C(=O)N[C@@H](Cc1ccc(O)cc1)C(=O)N[C@@H](CC(N)=O)C(=O)N[C@@H](CC(C)C)C(=O)N[C@H](C(=O)O)C(C)C [SBL-GQ-11] (Ac-KKKFN[Pra]CKD[Lys(N3)]ILQMNLREYNLV-OH; triazole 6-10),7,–,slight increase in agonist affinity,~478
Ac-KKKFNDCKDIILQMNLREYNLV-OH [SBL-GQ-08],2,not able to induce a conformational change,–,–
CC[C@H](C)[C@H](NC(=O)[C@H](CC(=O)O)NC(=O)[C@H](CCCCN)NC(=O)[C@H](CS)NC(=O)[C@H](CC(=O)O)NC(=O)[C@H](CC(N)=O)NC(=O)[C@H](Cc1ccccc1)NC(=O)[C@H](CCCCN)NC(=O)[C@H](CCCCN)NC(=O)[C@H](CCCCN)NC(C)=O)C(=O)N[C@H](C(=O)N[C@@H](CC(C)C)C(=O)N[C@@H](CCC(N)=O)C(=O)N[C@@H](CCSC)C(=O)N[C@@H](CC(N)=O)C(=O)N[C@@H](CC(C)C)C(=O)N[C@@H](CCCNC(=N)N)C(=O)N[C@@H](CCC(=O)O)C(=O)N[C@@H](Cc1ccc(O)cc1)C(=O)N[C@@H](CC(N)=O)C(=O)N[C@@H](CC1CCCCC1)C(=O)N[C@H](C(=O)O)C(C)C)[C@@H](C)CC [SBL-GQ-10] (Ac-KKKFNDCKDIILQMNLREYN[Cha]V-OH),2,not able to induce a conformational change,–,–
CC[C@H](C)[C@H](NC(=O)[C@@H]1CCCCn2cc(nn2)C[C@H](NC(=O)[C@H](C)NC(=O)[C@H](Cc2ccccc2)NC(=O)[C@H](CCCCN)NC(=O)[C@H](CCCCN)NC(=O)[C@H](CCCCN)NC(C)=O)C(=O)N[C@@H](C(C)C)C(=O)N[C@@H](CCCCN)C(=O)N[C@@H](CC(=O)O)C(=O)N1)C(=O)N[C@@H](CC(C)C)C(=O)N[C@@H](CCC(N)=O)C(=O)N[C@@H](CC(C)C)C(=O)N[C@@H](CC(N)=O)C(=O)N[C@@H](CC(C)C)C(=O)N[C@@H](CCCCN)C(=O)N[C@@H](CCC(=O)O)C(=O)N[C@@H](Cc1ccc(O)cc1)C(=O)N[C@@H](CC(N)=O)C(=O)N[C@@H](CC1CCCCC1)C(=O)N[C@H](C(=O)O)C(C)C [SBL-GQ-06] (Ac-KKKFA[Pra]VKD[Lys(N3)]ILQLNLKEYN[Cha]V-OH; triazole 6-10),8,–,slight increase in agonist affinity,~478
CC[C@H](C)[C@H](NC(=O)[C@@H]1CCCCn2cc(nn2)C[C@H](NC(=O)[C@H](CC(N)=O)NC(=O)[C@H](Cc2ccccc2)NC(=O)[C@H](CCCCN)NC(=O)[C@H](CCCCN)NC(=O)[C@H](CCCCN)NC(C)=O)C(=O)N[C@@H](CS)C(=O)N[C@@H](CCCCN)C(=O)N[C@@H](CC(=O)O)C(=O)N1)C(=O)N[C@@H](CC(C)C)C(=O)N[C@@H](CCC(N)=O)C(=O)N[C@@H](CCSC)C(=O)N[C@@H](CC(N)=O)C(=O)N[C@@H](CC(C)C)C(=O)N[C@@H](CCCNC(=N)N)C(=O)N[C@@H](CCC(=O)O)C(=O)N[C@@H](Cc1ccc(O)cc1)C(=O)N[C@@H](CC(N)=O)C(=O)N[C@@H](CC1CCCCC1)C(=O)N[C@H](C(=O)O)C(C)C [SBL-GQ-12] (Ac-KKKFN[Pra]CKD[Lys(N3)]ILQMNLREYN[Cha]V-OH; triazole 6-10),34,–,more significant and promising stabilization of the receptor,~478
